In ChEMBL document CHEMBL1143353, “Pyrazolo[1,5-a]-1,3,5-triazine as a purine bioisostere: access to potent cyclin-dependent kinase inhibitor (R)-roscovitine analogue” (J Med Chem, 2009):

Tests used:
Assay in all cases: cells
[1] = system: KM12; settings: Homo sapiens, KM12, 72 h
Description: Antiproliferative activity against human KM12 cells after 72 hrs by ViaLight assay

[2] = system: Malme-3M; settings: Homo sapiens, 72 h
Description: Antiproliferative activity against human MALME-3M cells after 72 hrs by ViaLight assay

[3] = system: SK-MEL-2; settings: Homo sapiens, SK-MEL-2, 72 h
Description: Antiproliferative activity against human SK-MEL-2 cells after 72 hrs by ViaLight assay

[4] = system: UACC-62; settings: Homo sapiens, UACC-62, 72 h
Description: Antiproliferative activity against human UACC62 cells after 72 hrs by ViaLight assay

[5] = system: OVCAR-4; settings: Homo sapiens, OVCAR-4, 72 h
Description: Antiproliferative activity against human OVCAR4 cells after 72 hrs by ViaLight assay

[6] = system: OVCAR-5; settings: Homo sapiens, OVCAR-5, 72 h
Description: Antiproliferative activity against human OVCAR5 cells after 72 hrs by ViaLight assay

[7] = system: A498; settings: Homo sapiens, A498, 72 h
Description: Antiproliferative activity against human A498 cells after 72 hrs by ViaLight assay

[8] = system: CAKI-1; settings: Homo sapiens, CAKI-1, 72 h
Description: Antiproliferative activity against human Caki1 cells after 72 hrs by ViaLight assay

[9] = system: RXF 393; settings: Homo sapiens, RXF 393, 72 h
Description: Antiproliferative activity against human RFX393 cells after 72 hrs by ViaLight assay

[10] = system: PC-3; settings: Homo sapiens, PC-3, 72 h
Description: Antiproliferative activity against human PC3 cells after 72 hrs by ViaLight assay

[11] = system: MCF7; settings: Homo sapiens, MCF7, 72 h
Description: Antiproliferative activity against human MCF7 cells after 72 hrs by ViaLight assay

[12] = system: NCI/ADR-RES; settings: Homo sapiens, 72 h
Description: Antiproliferative activity against human NCI/ADR-RES cells after 72 hrs by ViaLight assay

[13] = system: MDA-MB-435; settings: Homo sapiens, MDA-MB-435, 72 h
Description: Antiproliferative activity against human MDA-MB-435 cells after 72 hrs by ViaLight assay

[14] = system: MDA-MB-468; settings: Homo sapiens, MDA-MB-468, 72 h
Description: Antiproliferative activity against human MDA-MB-468 cells after 72 hrs by ViaLight assay

CC[C@H](CO)Nc1nc(NCc2ccccc2)n2ncc(C(C)C)c2n1
GI50 ([1]; read-out: pGI50 (converted)): 708 nM
CC50 ([1]; read-out: pLC50 (converted)): 9.77 µM
TGI ([1]; read-out: pTGI): 2820 nM
GI50 [2]: 2600 nM
TGI [2]: 6.99 µM
CC50 ([2]; read-out: LC50): 43.5 µM
GI50 ([2]; read-out: pGI50 (converted)): 2630 nM
CC50 ([2]; read-out: pLC50 (converted)): 43.7 µM
TGI ([2]; read-out: pTGI): 6.92 µM
GI50 [3]: 1470 nM
TGI [3]: 6 µM
CC50 ([3]; read-out: LC50): > 100 µM
GI50 ([3]; read-out: pGI50 (converted)): 1480 nM
CC50 ([3]; read-out: pLC50 (converted)): 100 µM
TGI ([3]; read-out: pTGI): 6.03 µM
GI50 [4]: 1370 nM
TGI [4]: 5.5 µM
CC50 ([4]; read-out: LC50): 31.1 µM
GI50 ([4]; read-out: pGI50 (converted)): 1380 nM
CC50 ([4]; read-out: pLC50 (converted)): 30.9 µM
TGI ([4]; read-out: pTGI): 5.5 µM
GI50 [5]: 2570 nM
TGI [5]: 37 µM
CC50 ([5]; read-out: LC50): > 100 µM
GI50 ([5]; read-out: pGI50 (converted)): 2630 nM
CC50 ([5]; read-out: pLC50 (converted)): 100 µM
TGI ([5]; read-out: pTGI): 0.372 µM
GI50 [6]: 1850 nM
TGI [6]: 15 µM
CC50 ([6]; read-out: LC50): > 100 µM
GI50 ([6]; read-out: pGI50 (converted)): 1780 nM
CC50 ([6]; read-out: pLC50 (converted)): 100 µM
TGI ([6]; read-out: pTGI): 15.1 µM
GI50 [7]: 1250 nM
TGI [7]: 3.44 µM
CC50 ([7]; read-out: LC50): 9.47 µM
GI50 ([7]; read-out: pGI50 (converted)): 1120 nM
CC50 ([7]; read-out: pLC50 (converted)): 9.55 µM
TGI ([7]; read-out: pTGI): 3.31 µM
GI50 [8]: 1020 nM
TGI [8]: 8.35 µM
CC50 ([8]; read-out: LC50): > 100 µM
GI50 ([8]; read-out: pGI50 (converted)): 1050 nM
CC50 ([8]; read-out: pLC50 (converted)): 100 µM
TGI ([8]; read-out: pTGI): 8.13 µM
GI50 [9]: 250 nM
TGI [9]: 790 nM
CC50 ([9]; read-out: LC50): 4.25 µM
GI50 ([9]; read-out: pGI50 (converted)): 251 nM
CC50 ([9]; read-out: pLC50 (converted)): 4.27 µM
TGI ([9]; read-out: pTGI): 794 nM
GI50 [10]: 930 nM
TGI [10]: 12.3 µM
CC50 ([10]; read-out: LC50): > 100 µM
GI50 ([10]; read-out: pGI50 (converted)): 117 nM
CC50 ([10]; read-out: pLC50 (converted)): 100 µM
TGI ([10]; read-out: pTGI): 0.123 µM
GI50 [11]: 590 nM
TGI [11]: 7.99 µM
CC50 ([11]; read-out: LC50): > 100 µM
GI50 ([11]; read-out: pGI50 (converted)): 589 nM
CC50 ([11]; read-out: pLC50 (converted)): 100 µM
TGI ([11]; read-out: pTGI): 7.94 µM
GI50 [12]: 2080 nM
TGI [12]: 15.7 µM
CC50 ([12]; read-out: LC50): > 100 µM
GI50 ([12]; read-out: pGI50 (converted)): 2090 nM
CC50 ([12]; read-out: pLC50 (converted)): 100 µM
TGI ([12]; read-out: pTGI): 15.8 µM
GI50 [13]: 2060 nM
TGI [13]: 10.1 µM
CC50 ([13]; read-out: LC50): 41.4 µM
GI50 ([13]; read-out: pGI50 (converted)): 2090 nM
CC50 ([13]; read-out: pLC50 (converted)): 41.7 µM
TGI ([13]; read-out: pTGI): 10 µM
GI50 [14]: 1880 nM
TGI [14]: 5.19 µM
CC50 ([14]; read-out: LC50): 63.5 µM
GI50 ([14]; read-out: pGI50 (converted)): 1860 nM
CC50 ([14]; read-out: pLC50 (converted)): 63.1 µM
TGI ([14]; read-out: pTGI): 5.25 µM
